# Tested on: AAC(6’)-Iaq
# Assay type: biochemical, Brucella intermedia
row,SMILES,Km
1,CCN[C@@H]1C[C@H](N)[C@@H](O[C@H]2OC(CN)=CC[C@H]2N)[C@H](O)[C@H]1O[C@H]1OC[C@](C)(O)[C@H](NC)[C@H]1O [netilmicin],3.83 ± 0.34 µM
2,CN[C@@H]1[C@@H](O)[C@@H](O[C@@H]2[C@@H](O)[C@H](O[C@H]3OC(CN)=CC[C@H]3N)[C@@H](N)C[C@H]2N)OC[C@]1(C)O [sisomicin],4.33 ± 1.32 µM
3,NCC[C@H](O)C(=O)N[C@@H]1C[C@H](N)[C@@H](O[C@H]2O[C@H](CN)[C@@H](O)[C@H](O)[C@H]2O)[C@H](O)[C@H]1O[C@H]1O[C@H](CO)[C@@H](O)[C@H](N)[C@H]1O [amikacin],14.1 ± 0.76 µM
4,NC[C@H]1O[C@H](O[C@H]2[C@H](O)[C@@H](O[C@H]3O[C@H](CO)[C@@H](O)[C@H](N)[C@H]3O)[C@H](N)C[C@@H]2N)[C@H](O)[C@@H](O)[C@@H]1O [kanamycin],13.3 ± 9.07 µM
5,NC[C@H]1O[C@H](O[C@H]2[C@H](O[C@@H]3O[C@H](CO)[C@@H](O)[C@H]3O)[C@@H](O)[C@H](N)C[C@@H]2N)[C@H](N)[C@@H](O)[C@@H]1O [ribostamycin],10.1 ± 2.45 µM

# Reference: publication PMC11932996, “aac(6’)-Iaq, a novel aminoglycoside acetyltransferase gene identified from an animal isolate Brucella intermedia DW0551” (Frontiers in Cellular and Infection Microbiology, 2025)
